Test results as given in article PMC7700651 (International Journal of Molecular Sciences, 2020).
Bridge positions count the residues as written; N and C are the ends. Peptide text beside a SMILES is read from it.

T1: BTLA/HVEM complex (Homo sapiens, UniProt Q92956)
T1 construct: expressed in transfected cells; host or cells: Jurkat JE6.1 NFκB-eGFP reporter cells (HVEM); T cell stimulator cells from mouse thymoma BW5147 (BTLA)
T1 sequence (Q92956 39-283): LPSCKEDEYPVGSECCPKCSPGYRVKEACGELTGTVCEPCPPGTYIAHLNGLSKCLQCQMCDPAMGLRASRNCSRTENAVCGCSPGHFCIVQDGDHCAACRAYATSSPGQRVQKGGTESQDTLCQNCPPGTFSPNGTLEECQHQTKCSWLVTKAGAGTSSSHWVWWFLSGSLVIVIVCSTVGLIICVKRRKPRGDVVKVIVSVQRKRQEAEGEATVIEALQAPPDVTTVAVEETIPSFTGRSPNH

T2: BTLA/HVEM complex (Homo sapiens, UniProt Q92956)
T2 construct: His; purchased ACROBiosystems (HVEM-His); Novoprotein (BTLA-Fc) #HVM-H52E9; #CD06
T2 sequence (Q92956 39-202 limits assumed): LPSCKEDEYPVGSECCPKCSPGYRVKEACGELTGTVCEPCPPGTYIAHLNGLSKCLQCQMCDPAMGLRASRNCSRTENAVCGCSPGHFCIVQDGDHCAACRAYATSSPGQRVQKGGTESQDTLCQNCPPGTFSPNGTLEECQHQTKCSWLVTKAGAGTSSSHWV

T3: recombinant human HVEM with His tag (human, UniProt Q92956 39-202)
T3 construct: also called HVEM-His; herpesvirus entry mediator; source: bought: ACROBiosystems (#HVM-H52E9)
T3 sequence (looked up): T2 sequence (Q92956 39-202 limits assumed)


How the values were obtained:
BTLA/HVEM complex [1] = molecular target: T1, BTLA/HVEM complex; experiment: Cell-based reporter assay (HVEM-expressing Jurkat NFκB-eGFP reporter cells stimulated with TCS-BTLA); conditions: 1.5 mg/mL; reporter cells pre-incubated 30 min with peptide, then TCS-BTLA 24 h; flow cytometry; three experiments in duplicate
Excerpt: To assess the capacities of the gD peptides to interfere with the BTLA/HVEM complex in a functional in vitro setting, reporter cells (NFκB-eGFP), which are based on the human Jurkat T cell line JE6.1 were transduced to express HVEM [34]. These reporter cells can be stimulated by T cell stimulator cells (TCS) expressing a membrane-bound anti-CD3 antibody fragment, which is able to engage the TCR-CD3 complex and thereby activate the NFκB pathway. In addition, to control TCS, TCS expressing the corresponding co-stimulatory ligand BTLA were generated in order to trigger HVEM in trans on the reporter cells (Figure S4). To validate the HVEM reporter system, control, and HVEM - expressing reporter cells were stimulated with control TCS and TCS expressing BTLA (Figure S4). Engagement of BTLA with HVEM induced high expression of NFκB-eGFP. To determine the inhibitory properties of the gD peptides, HVEM reporter cells were pre-incubated with the indicated peptides at different concentrations, followed by stimulation with control TCS or TCS-BTLA (Figure 4).
Figure 4 The inhibitory function of the peptides in a reporter cell-based assay. HVEM reporter cells were stimulated with TCS expressing BTLA in the absence or presence of the indicated gD peptides at concentrations of 1.5 mg/mL, 750 μg/mL, and 375 μg/mL. Reporter gene expression (NFκB-eGFP), upon stimulation with TCS-BTLA, was normalized to reporter activation after stimulation with TCS control in the presence of the respective peptides. BTLA/HVEM stimulation in the absence of peptides was set to 100% activation. Results are shown for three experiments performed independently in duplicate. Data are depicted as mean with SEM. * indicates statistically significant differences compared to full activation (100%), two-way ANOVA followed by Bonferroni’s post hoc test; p < 0.0001.
For functional assays, HVEM-expressing reporter cells (5 × 10^4 cells/well) were pre-incubated with different concentrations of gD peptides for 30 min in a 96 flat bottom plate. Control TCS or TCS expressing BTLA (2 × 10^4 cells/well) were subsequently added for 24 h at 37 °C with 5% CO2. After 24 h, the cells were harvested and stained with an mCD45.2 antibody to exclude TCS from the reporter cells. Expression of the reporter gene (eGFP) was then measured via flow cytometry. The mean and standard deviation of the gMFI of the viable population of reporter cells (mCD45.2+ stimulator cells were excluded) were determined. Each experiment was performed in duplicate.

BTLA/HVEM complex [2] = molecular target: T2, BTLA/HVEM complex; experiment: ELISA, inhibition of BTLA/HVEM complex formation; type: biochemical; conditions: peptides 1.5 to 0.375 mg/mL, 24 h, 37 °C; HVEM-His coated; BTLA-Fc 5 μg/mL
Description: ELISA tests were performed to check the inhibitory properties of the peptides. HVEM protein was first immobilized in microplates and then the peptides were added in three different concentrations and incubated with HVEM. Unbound peptides were then removed and BTLA-Fc protein was added. For the detection of BTLA-Fc protein, a goat anti-human IgG (H+L)-HRP conjugate and TMB (3,3’,5,5’-tetramethylbenzidine) were applied. As a positive control, anti-HVEM antibodies, which inhibit the BTLA/HVEM complex formation by about 50%, were used (Figure 3A and Figure S3). […] The inhibitory properties of the peptides were also studied for the complex HVEM/LIGHT, using the same procedure and conditions as described above, but with the application of LIGHT protein instead of BTLA protein. A significant increase in inhibitory properties was observed only for the anti-HVEM antibodies (positive control), which inhibited the HVEM/LIGHT binding by about 75% (Figure 3B and Figure S3). None of the tested peptides inhibited the formation of the LIGHT/HVEM complex (Figure 3B).
A 96-well Immunograde plate (Brand, Wertheim, Germany) was coated with 5 μg/mL of recombinant HVEM-His protein in PBS (100 μL/well) and incubated overnight at 4 °C. The plate was washed 5 times (200 μL/well) with PBS-T (5 mM Na2HPO4, 150 mM NaCl with the addition of 0.3 M NaCl and 0.05% Tween-20, pH 7.4) and blocked with 5% BSA in PBS-T for 2 h at 37 °C. The peptides were then titrated in triplicate from 1.5 to 0.375 mg/mL (100 µL/well) in PBS-T and incubated for 24 h at 37 °C. Maximum binding of HVEM to BTLA/LIGHT was determined by adding PBS-T to negative control wells, whereas maximum inhibition was measured by adding anti-HVEM (1 µg/well). The plate was then washed and incubated with recombinant BTLA-Fc/LIGHT-Fc protein at 5 μg/mL in PBS-T (100 μL/well) for 2 h at 37 °C. Goat anti-human IgG (H+L)-HRP conjugate (Bio-Rad, Hercules, CA, USA) antibody was then added (1:3000; 100 μL/well) and incubated for 1 h at 37 °C. Finally, BTLA-Fc/LIGHT-Fc was detected by the addition of 100 μL/well of TMB (Thermo Scientific, Waltham, MA, USA). Absorbance was measured using Infinite M200 Pro (Tecan Life Sciences, Männedorf, Switzerland) at 650 nm and 492 nm. […] ELISA tests were performed at least in triplicate. The data are presented as mean ± standard deviation (SD). The results were analyzed by one-way analysis of variance (ANOVA) followed by Dunnett’s post-hoc test using GraphPad Prism (San Diego, CA, USA).

HVEM protein = molecular target: T4, HVEM protein (Homo sapiens, UniProt Q92956); experiment: Affinity test: peptide on microcolumn with immobilized HVEM, fractions analysed by mass spectrometry; type: binding; conditions: for Interaction with HVEM protein in affinity test: microcolumn with immobilized HVEM, presence in elution fraction by mass spectrometry
T4 construct: His; purchased ACROBiosystems #HVM-H52E9
Description: Affinity tests were performed to confirm the interaction of the designed peptides with HVEM protein. The peptide was added to a microcolumn with immobilized HVEM protein, and binding was checked using mass spectrometry, according to a procedure described earlier.
The affinity tests were performed according to the procedure described in our previous paper. The MS spectrums were registered using a MALDI-TOF/TOF autoflex maX (Bruker, Billerica, MA, USA) mass spectrometer.

[3] = Stability of peptides in cell culture medium (RPMI1640 with 10% FCS), RP-HPLC; type: in vitro ADME; conditions: 37 °C, at least triplicate
Excerpt: A low stability in solution, which could be connected with many different processes such as aggregation, conformation changes, and chemical degradation, including deamidation and isomerization, oxidation, hydrolysis, and racemization, is a major concern for the therapeutic application of peptides. For the presented study, the stability of the peptides in PBS buffer and medium (solutions used in tests described above) was studied and determined using RP-HPLC. The analysis was done by comparing the area under the peaks in a control sample (peptide dissolved in water, time = 0) and a sample after incubation in PBS or medium.
200 µL of medium (RPMI1640 with 10% FCS)/human plasma was added to 50 µL of each peptide (1 mg/mL). The samples were incubated for different times (0, 2, 3, 6, and 24 h) at 37 °C. They were then precipitated by the addition 1 mL of absolute ethanol, incubated on ice for 15 min and centrifuged at 18,000 rpm for 20 min at 4 °C. The supernatants were collected and dried under vacuum. The samples were then resuspended in 120 µL of 0.1% TFA and analyzed by RP-HPLC under the same conditions as described for the determination of the stability of the peptides in PBS. All stability tests were performed at least in triplicate. Blood was obtained from donor volunteers and centrifuged in lithium/heparin tubes. EDTA was used as an anticoagulant.

[4] = molecular target: T3, recombinant human HVEM with His tag; experiment: affinity purification with mass spectrometry; HVEM protein immobilised in a microcolumn; peptide added; supernatant, last wash and elution fractions analysed by MALDI-TOF/TOF MS; procedure of ref. 33; conditions: both partners purified

| Molecule | Capacity to interfere with BTLA/HVEM complex (reduction of NFκB-eGFP activation), in words (BTLA/HVEM complex [1]) | Inhibitory properties for BTLA/HVEM complex formation (ELISA), in words (BTLA/HVEM complex [2]) | Elution [M+H]+ (signal in elution fraction = binding to immobilized HVEM) (HVEM protein; MALDI-TOF MS of elution fraction, binding confirmed if m/z signal present in elution and none in last wash, '-' = no signal) | Interaction with HVEM protein in affinity test (HVEM protein) | metabolised at 24 h, 0.2 mg/mL ([3]; cell culture medium (RPMI1640 with 10% FCS), 200 µL + 50 µL peptide 1 mg/mL, 24 h, ethanol precipitation, read-out: Degradation in medium after 24 h) | Stability in medium (and PBS), in words ([3]; up to 24 h) | binding result [4] |
| --- | --- | --- | --- | --- | --- | --- | --- |
| CSCC[C@@H]1NC(=O)[C@H](CC(=O)O)NC(=O)[C@H](CC(C)C)NC(=O)[C@H](CC(C)C)NC(=O)[C@H](CC(=O)O)NC(=O)[C@H](C(C)C)NC(=O)[C@H](C)NC(=O)[C@H](C(C)C)NC(=O)CNC(=O)[C@H](CC(=O)O)NC(=O)[C@@H](NC(=O)CNC(=O)[C@H](CCCCN)NC(=O)[C@H](CO)NC(=O)[C@H](C)NC(=O)[C@H](CCCNC(=N)N)NC(=O)[C@H](CC(C)C)NC(=O)[C@@H]2CCCN2C(=O)[C@H](CCCNC(=N)N)NC(=O)[C@H](CC(=O)O)NC(C)=O)CSSC[C@@H](C(=O)N[C@@H](CC(C)C)C(=O)N[C@H](C(=O)N[C@@H](CC(C)C)C(=O)N[C@@H](CC(=O)O)C(=O)N[C@@H](Cc2ccccc2)C(=O)N[C@@H](C)C(=O)N[C@@H](CCCNC(=N)N)C(N)=O)C(C)C)NC(=O)[C@@H]2CCCN2C(=O)[C@H](CC(N)=O)NC(=O)[C@H](CCCCN)NC(=O)[C@H](CCC(N)=O)NC(=O)[C@H](CCCNC(=N)N)NC(=O)[C@@H]2CCCN2C(=O)[C@H](Cc2ccc(O)cc2)NC(=O)[C@@H]2CCCN2C1=O [gD(1-36)(K10C-T29C)^SCR, reference compound] (Ac-DRPLRASKGCDGVAVDLLDMPYPRQKNPCLVLDFAR-NH2; disulfide 10-29) | weak blocking effect | no effect |  |  |  |  |  |
| CSCC[C@H](NC(=O)[C@H](CCCCN)NC(=O)[C@H](CC(C)C)NC(=O)[C@H](CO)NC(=O)[C@H](C)NC(=O)[C@H](CC(=O)O)NC(=O)[C@@H](NC(=O)[C@H](CC(C)C)NC(=O)[C@H](C)NC(=O)[C@H](Cc1ccc(O)cc1)NC(=O)[C@H](CCCCN)NC(C)=O)C(C)C)C(=O)N[C@@H](C)C(=O)N[C@@H](CC(=O)O)C(=O)N1CCC[C@H]1C(=O)N[C@@H](CC(N)=O)C(=O)N[C@@H](CCCNC(=N)N)C(=O)N[C@@H](Cc1ccccc1)C(=O)N[C@@H](CCCNC(=N)N)C(=O)NCC(=O)N[C@@H](CCCCN)C(=O)N[C@@H](CC(=O)O)C(=O)N[C@@H](CC(C)C)C(=O)N1CCC[C@H]1C(=O)N[C@H](C(=O)N[C@@H](CC(C)C)C(=O)N[C@@H](CC(=O)O)C(=O)N[C@@H](CCC(N)=O)C(=O)N[C@@H](CC(C)C)C(=O)N[C@H](C(=O)N[C@@H](CC(=O)O)C(=O)N1CCC[C@H]1C(=O)N1CCC[C@H]1C(=O)NCC(=O)N[C@H](C(=O)N[C@@H](CCCNC(=N)N)C(=O)N[C@@H](CCCNC(=N)N)C(N)=O)C(C)C)[C@@H](C)O)C(C)C [gD(1-36)] | weak blocking effect | did not prevent protein interaction | 4094.88 | binds to HVEM | ~50% |  |  |
| Ac-ASLKMADPN-NH2 [gD(7-15)] | no effect | do not inhibit BTLA/HVEM complex formation |  | do not interact with HVEM protein |  | almost completely degraded |  |
| Ac-DQLTDPP-NH2 [gD(26-32)] | weak blocking effect | do not inhibit BTLA/HVEM complex formation |  | do not interact with HVEM protein |  |  |  |
| Ac-KYALVDASLKMADPNRFRGKDLPVLDQLTDPPGVRR-NH2 (source: synthetic peptide) [gD(1-36)] |  |  |  |  |  |  | binds |
